# Measured values reported in US20030194450A1, “Method of producing a preparation containing active substances from cannabis” (priority 2002, published 2003).
# Where “and” joins values, the source holds several entries; their conditions need not be identical. Equal values may be shown once.
# Assay: Δ-9-tetrahydrocannabinol content in milk of a dairy cow fed hemp blossoms
# Type: in vivo
# Conditions: dairy cow fed 14 kg/day feed in two rations, 50 g ensiled hemp blossoms per ration; milk samples one week after initiation of feeding plan
# From the text: A dairy cow with a medium milk production was fed over a time period of two weeks with a daily feed amount of 14 kg/day, divided up into two rations, 50 g of hemp blossoms having been added to each ration. The hemp blossoms used consisted of the upper part of pistillate hemp plants which were harvested in a way analogous to that employed for harvesting corn. The material was processed by a corn chaff cutter and underwent an ensilage step. The rest of the fodder was normal cattle feed (Total Mix Ratio, TMR) as is commonly provided in agriculture to cows for milk production. The content of Δ-9-tetrahydrocannabinol active substance in milk samples obtained one week after initiation of the feeding plan was determined to be 0.15 mg/l and 0.63 mg/l. The measurements were carried out in an accredited laboratory (Swiss testing STS 017, EN 45001, GMP).
smiles,measurement,value
CCCCCc1cc(O)c2c(c1)OC(C)(C)[C@@H]1CCC(C)=C[C@@H]21 [Δ-9-tetrahydrocannabinol],content of Δ-9-tetrahydrocannabinol active substance in milk samples,0.15 mg/L and 0.63 mg/L
